Article PMC5371851 (Toxins, 2017)

Tests used:
[1] = system: human gastric epithelial (GES-1) cells
porcine IPEC-1 = conditions: pig intestine cell (IPEC-1); cited from earlier work

SMILES | relative potency in reducing cell viability (fold less) [1] | effect on cell viability ([1]; human) | toxicity relative to DON (porcine IPEC-1) | Dm (median-effect dose, IC50 value) [1] [ppm] | EC30 (effective concentration of 30% inhibiting cell viability rate) [1] | EC70 (effective concentration of 70% inhibiting cell viability rate) [1] | m (slope of median-effect curves) [1] | toxicity to GES-1 cells [1]
CC(=O)O[C@@H]1C[C@]2(C)[C@@]3(CO)[C@H](O)C(=O)C(C)=C[C@H]3O[C@H]1[C@@]21CO1 [3-ADON, 3-acetyldeoxynivalenol] | ten-fold | neither D3G nor 3-ADON decreased any cell viability | less toxicity than DON | – | – | – | – | –
CC(=O)OC[C@]12[C@H](O)C(=O)C(C)=C[C@H]1O[C@@H]1[C@H](O)C[C@@]2(C)[C@]12CO2 [15-ADON, 15-acetyldeoxynivalenol] | – | – | – | 4.77 | 1.13 | 20.05 | 0.59 | –
CC1=C[C@H]2O[C@@H]3[C@H](O[C@@H]4O[C@H](CO)[C@@H](O)[C@H](O)[C@H]4O)C[C@](C)([C@@]2(CO)[C@H](O)C1=O)[C@]31CO1 [D3G, deoxynivalenol-3-glucoside] | – | – | – | – | – | – | – | no toxicity
CC1=C[C@H]2O[C@@H]3[C@H](O)C[C@](C)([C@@]2(CO)[C@H](O)C1=O)[C@]31CO1 [DON, deoxynivalenol] | – | – | – | 2.99 | 0.75 | 11.99 | 0.61 | –
CC(=O)O[C@@H]1[C@@H](O)[C@H]2O[C@@H]3C=C(C)C(=O)[C@@H](O)[C@]3(CO)[C@]1(C)[C@]21CO1 [FX, Fusarenon-X] | – | – | – | 0.85 | 0.15 | 4.97 | 0.48 | –
CC1=C[C@H]2O[C@@H]3[C@H](O)[C@@H](O)[C@](C)([C@@]2(CO)[C@H](O)C1=O)[C@]31CO1 [NIV, Nivalenol] | – | – | – | 0.58 | 0.08 | 4.36 | 0.42 | –
